Patent publication US10881110B2, “Herbicidal compositions comprising isoxazolo[5,4-b]pyridines” (BASF SE, priority 2014, dated 2021)

Key:
Test in all cases: greenhouse post-emergence herbicidal test
[1] = tested on: STEME; format: in vivo, Stellaria media; set-up: key: scale 0 to 100
Summary of the method: (§1)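 A 0 to 100 injury score, read 20 days after post-emergence application, reflects above-ground destruction or absent emergence at 100. Actives, formulated as a 10% by weight emulsion concentrate, were applied in water to plants 1–15 cm tall held at 10-25° C or 20-35° C.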

[2] = tested on: AMBEL; format: in vivo, Ambrosia artemisiifolia; set-up: key: rating on a scale from 0 to 100
Summary of the method: as §1

[3] = tested on: CONAR; format: in vivo, Convolvulus arvensis; set-up: key: rating on a scale from 0 to 100
Summary of the method: as §1

[4] = tested on: KCHSC; format: in vivo, Kochia scoparia; conditions: Bassia scoparia, post-emergence, 480 h, post emergence, read-out: herbicidal activity against KCHSC found
Summary of the method: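 Herbicidal activity scored on a 0 (no damage) to 100 (plants destroyed) scale, usually 20 days after water-based spraying of 1–15 cm plants grown in loamy sand at 10-25 °C or 20-35 °C depending on species. Components were applied from 10% emulsion concentrates; Colby's E=X+Y−(X·Y/100) gives the additive expectation.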

[5] = a.i. g/ha: I.1 15.6, B.67 125, 20 days after treatment
[6] = a.i. g/ha: I.1 20.8, B.67 62.5, 20 days after treatment
[7] = a.i. g/ha: I.1 31.25, B.67 125, 20 days after treatment
[8] = application rate a.i.: I.1 31.25 g/ha, B.139 (pyroxasulfone) 12.5 g/ha, alone or as mixture (composition 1.139)

O=C(O)c1cc(C2CC2)nc2onc(C3CC3)c12 [I.1]
herbicidal activity against STEME found ([1]; 31.25 g/ha a.i.): 70
herbicidal activity against STEME found ([1]; 62.5 g/ha a.i.): 65
herbicidal activity against STEME found ([1]; 6 days after treatment, g/ha a.i.: I.1 31.25, B.96 35, mixture 31.25+35): 60
herbicidal activity against STEME found ([1]; I.1 15.62 g/ha, B.103 15 g/ha a.i.): 60
herbicidal activity against STEME found ([1]; I.1 15.62 g/ha, B.89 25 g/ha a.i.): 0
herbicidal activity against STEME found ([1]; I.1 31.25 g/ha, B.89 12.5 g/ha a.i.): 0
herbicidal activity against STEME found ([1]; I.1 31.25 g/ha, B.89 25 g/ha a.i.): 0
herbicidal activity against STEME found ([1]; I.1 alone 31.25 g/ha a.i.): 30
herbicidal activity against STEME found ([1]; a.i. g/ha: I.1 2.3, B.67 62.5, 20 days after treatment): 0%
herbicidal activity against STEME found ([1]; a.i. g/ha: I.1 6.9, B.67 62.5, 20 days after treatment): 0%
herbicidal activity against STEME found [1, 5]: 0%
herbicidal activity against STEME found [1, 6]: 50%
herbicidal activity against STEME found ([1]; a.i. g/ha: I.1 31.25, B.190 62.5, 20 days after treatment): 70%
herbicidal activity against STEME found [1, 7]: 70%
herbicidal activity against STEME found ([1]; a.i. g/ha: I.1 31.25, B.67 125, 20 days after treatment, sub-table r36-r43): 70%
herbicidal activity against STEME found ([1]; a.i. g/ha: I.1 62.5, B.191 225, 20 days after treatment): 85%
herbicidal activity against AMBEL found ([2]; 31.25 g/ha a.i.): 85
herbicidal activity against AMBEL found ([2]; I.1 alone 125 g/ha a.i.): 65
herbicidal activity against AMBEL found ([2]; a.i. g/ha: I.1 20.8, B.192 62.5, 20 days after treatment): 30%
herbicidal activity against AMBEL found ([2]; application rate a.i.: I.1 31.25 g/ha, B.100 (isoxaflutole) 12.5 g/ha, alone or as mixture (composition 1.100)): 90
herbicidal activity against AMBEL found [2, 8]: 65
herbicidal activity against AMBEL found ([2]; application rate a.i.: I.1 31.25 g/ha, B.84 (paraquat-dichloride) 17.5 g/ha, alone or as mixture (composition 1.84)): 65
herbicidal activity against AMBEL found ([2]; application rate a.i.: I.1 62.5 g/ha, B.100 (isoxaflutole) 12.5 g/ha, alone or as mixture (composition 1.100)): 90
herbicidal activity against AMBEL found ([2]; applied alone at 31.25 g/ha a.i.): 75
herbicidal activity against AMBEL found ([2]; single active, 15.62 g/ha a.i.): 0
herbicidal activity against AMBEL found ([2]; single active, 15.625 g/ha a.i.): 0
herbicidal activity against CONAR found ([3]; 31.25 g/ha a.i.): 40
herbicidal activity against CONAR found ([3]; 62.5 g/ha a.i.): 60
herbicidal activity against CONAR found ([3]; 125 g/ha a.i.): 70
herbicidal activity against CONAR found ([3]; 6 days after treatment, g/ha a.i.: I.1 31.25, naptalam 50, mixture 31.25+50): 5
herbicidal activity against CONAR found ([3]; 6 days after treatment, g/ha a.i.: I.1 31.25, naptalam 100, mixture 31.25+100): 5
herbicidal activity against CONAR found ([3]; 6 days after treatment, g/ha a.i.: I.1 31.25, naptalam 200, mixture 31.25+200): 5
herbicidal activity against CONAR found ([3]; 6 days after treatment, g/ha a.i.: I.1 62.5, B.96 140, mixture 62.5+140): 65
herbicidal activity against CONAR found ([3]; 6 days after treatment, g/ha a.i.: I.1 125, naptalam 100, mixture 125+100): 70
herbicidal activity against CONAR found ([3]; a.i. g/ha: I.1 7.8, B.67 125, 20 days after treatment): 0%
herbicidal activity against CONAR found [3, 5]: 0%
herbicidal activity against CONAR found [3, 6]: 0%
herbicidal activity against CONAR found [3, 7]: 0%
herbicidal activity against CONAR found ([3]; a.i. g/ha: I.1 31.25, B.69 25, 20 days after treatment): 70%
herbicidal activity against CONAR found ([3]; a.i. g/ha: I.1 62.5, B.67 62.5, 20 days after treatment): 25%
herbicidal activity against CONAR found ([3]; a.i. g/ha: I.1 62.5, B.67 125, 20 days after treatment): 0%
herbicidal activity against CONAR found ([3]; a.i. g/ha: I.1 62.5, B.69 25, 20 days after treatment): 65%
herbicidal activity against CONAR found ([3]; a.i. g/ha: I.1 62.5, B.76 225, 20 days after treatment): 65%
herbicidal activity against CONAR found ([3]; a.i. g/ha: I.1 62.5, B.77 75, 20 days after treatment): 25%
herbicidal activity against CONAR found ([3]; a.i. g/ha: I.1 62.5, B.80 250, 20 days after treatment): 25%
herbicidal activity against CONAR found [3, 8]: 30
herbicidal activity against CONAR found ([3]; application rate a.i.: I.1 31.25 g/ha, B.139 (pyroxasulfone) 25 g/ha, alone or as mixture (composition 1.139)): 30
herbicidal activity against CONAR found ([3]; application rate a.i.: I.1 62.5 g/ha, B.30 (imazamox) 3.75 g/ha, alone or as mixture (composition 1.030)): 25
herbicidal activity against CONAR found ([3]; application rate a.i.: I.1 62.5 g/ha, B.84 (paraquat-dichloride) 17.5 g/ha, alone or as mixture (composition 1.84)): 45
herbicidal activity against CONAR found ([3]; application rate a.i.: I.1 125 g/ha, B.113 (glyphosate) 33.75 g/ha, alone or as mixture (composition 1.113)): 80
pest or weed control at 31.25 g/ha ([4]; I.1 alone 31.25 g/ha a.i.): 70%
pest or weed control at 62.5 g/ha ([4]; I.1 alone 62.5 g/ha a.i.): 85%
